The text below walks through data of patent EP4653437A2 (Innovo Therapeutics Inc., priority 2023, dated 2024).

By IC50 is commonly meant the concentration needed to halve the response being measured. High values mean weaker potency in that assay, low ones greater potency in that assay.

One assay concerns the target T1, human 15-PGDH (Homo sapiens, UniProt P15428).
T1 construct: purchased R&D System 5660-DH
T1 sequence (P15428 1-266): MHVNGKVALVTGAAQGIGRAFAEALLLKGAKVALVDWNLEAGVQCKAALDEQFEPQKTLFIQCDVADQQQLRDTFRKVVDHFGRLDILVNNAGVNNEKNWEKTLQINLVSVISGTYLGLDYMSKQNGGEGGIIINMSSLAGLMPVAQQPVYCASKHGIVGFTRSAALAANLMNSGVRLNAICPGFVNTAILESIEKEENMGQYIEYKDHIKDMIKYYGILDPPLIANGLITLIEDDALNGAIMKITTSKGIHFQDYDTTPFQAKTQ
In words: Evaluation of 15-PGDH inhibitory activity (fluorescence enzyme assay, NAD+/PGE2). Type of assay: biochemical. The following applies: human 15-PGDH enzyme, fluorescence Vmax. The method, then:
15-PGDH inhibition activity of Example compounds was measured as follows. 6.7 ng of human 15-PGDH (R&D System# 5660-DH) enzyme (10 µL) was added to a black 96 well plate, 60 µL of buffer (50 mM Tris-HCl, pH 7.5, 0.01% Tween 20) was added, and 10 µL of 200 µM β-Nicotinamide adenine dinucleotide sodium salt (Sigma, Cat# N0632-5G) was added. 10 µL of (10x) compound solution in DMSO was added and reacted for 10 minutes at room temperature.

Another assay deals with A549 cells. Nature of the assay: Measurement of PGE2-increasing activity in A549 cells (IL-1β stimulated, PGE2 quantified in supernatant). Type of assay: cell-based. The following applies: Homo sapiens, 24 h; concentration of 1 µM of each compound; IL-1β treated A549 cells; read-out: Increased PGE2 production in A549 cells. The method, then:
A549 cells were prepared at a cell number of 1 x 10^5/mL in F12K medium containing 10% FBS (Fetal Bovine Serum), and 2 x 10^4/200 µL was added to each well of a 96-well cell culture plate, and then cultured in an incubator with 5% CO2 at 37 °C for 24 hours. After the culture was complete and all F12K medium was removed, all wells were washed once with 100 µL of PBS, and treated with 160 µL of serum-free F12K medium. Then, 20 µL of IL-1β diluted 10-fold to a concentration of 1 ng/mL in serum-free F12K medium was treated to wells to be treated with IL-1β, and 20 µL of serum-free F12K medium was treated to wells not treated with IL-1β. For the wells to be treated with the compound, 20 µL of the compound dissolved in 100% DMSO was diluted to a concentration 10 times of the desired compound concentration in serum-free F12K medium so that the final DMSO concentration treated to the cells was 0.1%, and for the wells not to be treated with the compound, 20 µL of DMSO diluted in serum-free F12K medium so that the final DMSO concentration treated to the cells was 0.1% was treated. In order to confirm the increase or decrease in the secretion amount of PGE2 in the supernatant collected after culturing for 24 hours in an incubator with 5% CO2 at 37 °C, PGE2 was quantified using the Prostaglandin E2 Parameter (SKGE004B).

`Cc1nc(-c2cc(-c3cccc4c(C(=O)N5CCCCC5)cnn34)cc([N+](=O)[O-])c2)no1` [Example 330, (7-(3-(5-methyl-1,2,4-oxadiazol-3-yl)-5-nitrophenyl)pyrazolo[1,5-a]pyridin-3-yl)(piperidin-1-yl)methanone] had a half-maximal inhibitory concentration (IC50) against human 15-PGDH of at most 100 nM. The fold induction at 1 µM with A549 cells is above 1.5.

`Cn1ccc(NC(=O)c2cncc(-c3cccc4c(C(=O)N5CCCCC5)cnn34)c2)n1` [Example 193, N-(1-methyl-1H-pyrazol-3-yl)-5-(3-(piperidine-1-carbonyl)pyrazolo[1,5-a]pyridin-7-yl)nicotinamide] came in with an IC50 on human 15-PGDH of at most 100 nM. Also, the fold induction at 1 µM with A549 cells was above 1.5.

Turning to `O=C1NCc2ccc(-c3cccc4c(C(=O)N5CCC(F)CC5)cnn34)cc21` [Example 155, 6-(3-(4-fluoropiperidine-1-carbonyl)pyrazolo[1,5-a]pyridin-7-yl)isoindolin-1-one], the IC50 against human 15-PGDH was at most 100 nM. For the same compound, the fold induction at 1 µM in the assay on A549 cells was above 1.5.

As for `N#Cc1cccc(-c2cccc3c(C(=O)N4CCCCC4)cnn23)c1` [Example 6, 3-(3-(piperidine-1-carbonyl)pyrazolo[1,5-a]pyridin-7-yl)benzonitrile], at human 15-PGDH, the IC50 was at most 100 nM. In addition, the fold induction at 1 µM in the assay on A549 cells is above 1.5.

Regarding `O=C(c1ccc(-c2cccc3c(C(=O)N4CCCCC4)cnn23)cn1)N1CC(F)C1` [Example 213, (3-fluoroazetidin-1-yl)-[5-[3-(piperidine-1-carbonyl)pyrazolo[1,5-a]pyridin-7-yl]-2-pyridyl]methanone], the concentration for half-maximal inhibition (IC50) against human 15-PGDH was at most 100 nM. For the same compound, the fold induction at 1 µM in the assay with A549 cells was above 1.5.

On human 15-PGDH, `O=C(NCC1CC1)c1cncc(-c2cccc3c(C(=O)N4CCCCC4)cnn23)c1` [Example 46, N-(cyclopropylmethyl)-5-(3-(piperidine-1-carbonyl)pyrazolo[1,5-a]pyridin-7-yl)nicotinamide] displayed an IC50 of at most 100 nM. In the assay with A549 cells, the fold induction at 1 µM was above 1.5.

`O=C(Nc1cncc(-c2cccc3c(C(=O)N4CCCCC4)cnn23)c1)c1cccnc1` [Example 326, N-(5-(3-(piperidine-1-carbonyl)pyrazolo[1,5-a]pyridin-7-yl)pyridin-3-yl)nicotinamide] gave an IC50 against human 15-PGDH of at most 100 nM. The fold induction at 1 µM with A549 cells is above 1.5.

`O=C(c1cnn2c(-c3ccc(F)nc3)cccc12)N1CCCCC1` [Example 19, (7-(6-fluoropyridin-3-yl)pyrazolo[1,5-a]pyridin-3-yl)(piperidin-1-yl)methanone]: the IC50 on human 15-PGDH was at most 100 nM. Moreover, the fold induction at 1 µM in the assay on A549 cells is above 1.5.

Compound `Nc1n[nH]c2ccc(-c3cccc4c(C(=O)N5CCCCC5)cnn34)cc12` [Example 260, [7-(3-amino-1H-indazol-5-yl)pyrazolo[1,5-a]pyridin-3-yl]-(1-piperidyl)methanone] had an IC50 on human 15-PGDH of at most 100 nM. Further, the fold induction at 1 µM in the assay with A549 cells is above 1.5.

For `O=C(c1cnn2c(-c3cc(Br)cnc3F)cccc12)N1CCCCC1` [Example 265, (7-(5-bromo-2-fluoropyridin-3-yl)pyrazolo[1,5-a]pyridin-3-yl)(piperidin-1-yl)methanone], the IC50 at human 15-PGDH is at most 100 nM. Further, in the assay with A549 cells, the fold induction at 1 µM was above 1.5.

Compound `N#Cc1cc(-c2cccc3c(C(=O)N4CCCCC4)cnn23)ccc1F` [Example 254, 2-fluoro-5-[3-(piperidine-1-carbonyl)pyrazolo[1,5-a]pyridin-7-yl]benzonitrile] came in with an IC50 on human 15-PGDH of at most 100 nM. In the assay with A549 cells, the fold induction at 1 µM was above 1.5.

In turn, `O=C1NCCc2ccc(-c3cccc4c(C(=O)N5CCCCC5)cnn34)cc21` [Example 131, 7-(3-(piperidine-1-carbonyl)pyrazolo[1,5-a]pyridin-7-yl)-3,4-dihydroisoquinolin-1(2H)-one] showed an IC50 against human 15-PGDH of at most 100 nM. Further, in the assay on A549 cells, the fold induction at 1 µM was above 1.5.

`O=C(c1cnn2c(-c3ccc(F)nc3F)cccc12)N1CCCCC1` [Example 266, (7-(2,6-difluoropyridin-3-yl)pyrazolo[1,5-a]pyridin-3-yl)(piperidin-1-yl)methanone] showed an IC50 against human 15-PGDH of at most 100 nM. Moreover, the fold induction at 1 µM with A549 cells was above 1.5.

In the case of `O=C(c1cnn2c(-c3ccc(N4CCOC4=O)nc3)cccc12)N1CCCCC1` [Example 316, 3-(5-(3-(piperidine-1-carbonyl)pyrazolo[1,5-a]pyridin-7-yl)pyridin-2-yl)oxazolidin-2-one], on human 15-PGDH, the concentration for half-maximal inhibition (IC50) was at most 100 nM. Besides, in the assay on A549 cells, the fold induction at 1 µM was above 1.5.

With `Cc1nnc(-c2ncc(-c3cccc4c(C(=O)N5CCCCC5)cnn34)cc2F)o1` [Example 379, [7-[5-fluoro-6-(5-methyl-1,3,4-oxadiazol-2-yl)-3-pyridyl]pyrazolo[1,5-a]pyridin-3-yl]-(1-piperidyl)methanone], at human 15-PGDH, the half-maximal inhibitory concentration (IC50) is at most 100 nM. For the same compound, in the assay with A549 cells, the fold induction at 1 µM is above 1.5.

In turn, `O=C(c1cnn2c(-c3cc(-c4cncc(F)c4)nc(N4CCOCC4)c3)cccc12)N1CCCCC1` [Example 376, (7-(5'-fluoro-6-morpholino-[2,3'-bipyridin]-4-yl)pyrazolo[1,5-a]pyridin-3-yl)(piperidin-1-yl)methanone] came in with an IC50 against human 15-PGDH of at most 100 nM. The fold induction at 1 µM in the assay on A549 cells was above 1.5.

As to `COC(=O)c1cccc(-c2cccc3c(C(=O)N4CCCCC4)cnn23)c1` [Example 3, methyl 3-(3-(piperidine-1-carbonyl)pyrazolo[1,5-a]pyridin-7-yl)benzoate], the IC50 against human 15-PGDH is at most 100 nM. Also, the fold induction at 1 µM in the assay on A549 cells was below 1.5.

The compound `COc1noc2ccc(-c3cccc4c(C(=O)N5CCCCC5)cnn34)cc12` [Example 269, (7-(3-methoxybenzo[d]isoxazol-5-yl)pyrazolo[1,5-a]pyridin-3-yl)(piperidin-1-yl)methanone] displayed an IC50 against human 15-PGDH of at most 100 nM. The fold induction at 1 µM with A549 cells is above 1.5.

As for `O=C(c1cnn2c(-c3cnc(F)c(F)c3)cccc12)N1CCCCC1` [Example 288, (7-(5,6-difluoropyridin-3-yl)pyrazolo[1,5-a]pyridin-3-yl)(piperidin-1-yl)methanone], the 50% inhibitory concentration (IC50) at human 15-PGDH is at most 100 nM. In the assay on A549 cells, the fold induction at 1 µM is above 1.5.

At human 15-PGDH, `O=C(c1cnn2c(-c3cnc(-c4noc(=O)[nH]4)nc3)cccc12)N1CCCCC1` [Example 321, 3-[5-[3-(piperidine-1-carbonyl)pyrazolo[1,5-a]pyridin-7-yl]pyrimidin-2-yl]-4H-1,2,4-oxadiazol-5-one] registered an IC50 of at most 100 nM. Moreover, the fold induction at 1 µM in the assay on A549 cells is above 1.5.

Turning to `O=C(c1cnn2c(-c3cnc(-c4noc(=O)[nH]4)c(F)c3)cccc12)N1CCCCC1` [Example 247, 3-[3-fluoro-5-[3-(piperidine-1-carbonyl)pyrazolo[1,5-a]pyridin-7-yl]-2-pyridyl]-4H-1,2,4-oxadiazol-5-one], the IC50 at human 15-PGDH is at most 100 nM. Moreover, the fold induction at 1 µM with A549 cells was above 1.5.

For the compound `O=C(c1cnn2c(-c3ccc(N4CC5CCC4C5)nc3)cccc12)N1CCCCC1` (stereo not shown) [Example 215, (7-(6-(2-azabicyclo[2.2.1]heptan-2-yl)pyridin-3-yl)pyrazolo[1,5-a]pyridin-3-yl)(piperidin-1-yl)methanone], the IC50 against human 15-PGDH was at most 100 nM. The fold induction at 1 µM in the assay with A549 cells is above 1.5.

Compound `COc1ccc(-c2cccc3c(C(=O)N4CCCCC4)cnn23)cc1C(F)(F)F` [Example 20, (7-(4-methoxy-3-(trifluoromethyl)phenyl)pyrazolo[1,5-a]pyridin-3-yl)(piperidin-1-yl)methanone] gave an IC50 against human 15-PGDH of at most 100 nM. Moreover, the fold induction at 1 µM in the assay on A549 cells was above 1.5.
